Source: ChEMBL document CHEMBL3751755, “Developing steroidal aromatase inhibitors-an effective armament to win the battle against breast cancer” (Eur J Med Chem, 2015)

target: T1, Aromatase (Homo sapiens, UniProt P11511); experiment: Competitive inhibition of human aromatase extracted from placental microsomes by Dixon plot analysis in presence of [1beta-3H]AD; conditions: read-out: Ki
T1 sequence (P11511 whole entry): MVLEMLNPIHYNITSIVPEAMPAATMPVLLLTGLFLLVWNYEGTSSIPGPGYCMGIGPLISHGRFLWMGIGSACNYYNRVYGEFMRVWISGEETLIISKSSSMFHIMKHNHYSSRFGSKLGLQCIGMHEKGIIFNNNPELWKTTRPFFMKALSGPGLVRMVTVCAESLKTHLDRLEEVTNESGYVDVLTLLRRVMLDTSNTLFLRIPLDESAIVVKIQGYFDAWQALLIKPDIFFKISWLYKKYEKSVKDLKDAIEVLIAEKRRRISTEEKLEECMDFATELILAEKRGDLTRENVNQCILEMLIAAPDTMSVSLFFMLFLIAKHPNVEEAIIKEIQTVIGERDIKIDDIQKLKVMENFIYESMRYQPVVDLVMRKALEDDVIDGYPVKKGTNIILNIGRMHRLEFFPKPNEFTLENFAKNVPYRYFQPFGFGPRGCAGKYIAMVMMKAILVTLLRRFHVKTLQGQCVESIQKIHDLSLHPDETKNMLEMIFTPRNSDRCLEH

First: C[C@]12C[C@@H](O)C(=O)C=C1CC[C@@H]1[C@@H]2CC[C@]2(C)C(=O)CC[C@@H]12
Second: C[C@]12C[C@@H](Br)C(=O)C=C1CC[C@@H]1[C@@H]2CC[C@]2(C)C(=O)CC[C@@H]12
The Ki of the first is 15-fold higher: 670 nM for the first, 45 nM for the second. The second binds more tightly here.

First: CO[C@@H]1C[C@@]2(C)C(=CC1=O)CC[C@@H]1[C@@H]2CC[C@]2(C)C(=O)CC[C@@H]12
Second: C[C@]12C[C@@H](Cl)C(=O)C=C1CC[C@@H]1[C@@H]2CC[C@]2(C)C(=O)CC[C@@H]12
The Ki of the first is 15-fold higher: 670 nM for the first, 45 nM for the second.

First: CO[C@H]1C=C2C(=O)C[C@@H]3[C@H](CC[C@]4(C)C(=O)CC[C@@H]34)[C@@]2(C)CC1
Second: C[C@]12CCC(=O)C=C1C(=O)C[C@@H]1[C@@H]2CC[C@]2(C)C(=O)[C@H](O)C[C@@H]12
The Ki of the first is 1.7-fold lower: 700 nM for the first, 1180 nM for the second. The first binds more tightly here.

same assay, conditions: read-out: Ki(app)

With `C[C@]12CCC(=O)C=C1C(=O)C[C@@H]1[C@@H]2CC[C@]2(C)C(=O)[C@H](Br)C[C@@H]12` the Ki was 150 nM.

target: T1, Aromatase; experiment: Competitive inhibition of human aromatase extracted from placental microsomes by Dixon plot analysis in presence of [1beta-3H]androstenedione; conditions: read-out: Ki

`CC[C@]12CCC(=O)C=C1C=C[C@@H]1[C@@H]2CC[C@]2(C)C(=O)CC[C@@H]12` and `CC[C@]12C=CC(=O)C=C1C=C[C@H]1[C@@H]3CCC(=O)[C@@]3(C)CC[C@@H]12` are the same in Ki: 8.2 nM for the first, 8.2 nM for the second.

`CC[C@]12C=CC(=O)C=C1CC[C@H]1[C@@H]3CCC(=O)[C@@]3(C)CC[C@@H]12` and `CC[C@]12CCC(=O)C=C1CC[C@@H]1[C@@H]2CC[C@]2(C)C(=O)CC[C@@H]12` are the same in Ki: 8.2 nM for the first, 8.2 nM for the second.

Going from `C[C@]12CCCCC1=CC(=O)[C@@H]1[C@@H]2CC[C@]2(C)C(=O)CC[C@@H]12` to `C[C@]12CC[C@H]3[C@@H](C(=O)C=C4CCCC[C@@]43CO)[C@@H]1CCC2=O`, the Ki rises from 143 nM to 11100 nM (78-fold). The first binds more tightly here.

same assay, conditions: read-out: Ki(app)

`CCCCC[C@@H]1C[C@@H]2[C@H](CC[C@]3(C)C(=O)CC[C@@H]23)[C@@]2(C)C=CC(=O)C=C12` and `CC[C@@H]1C[C@@H]2[C@H](CC[C@]3(C)C(=O)CC[C@@H]23)[C@@]2(C)C=CC(=O)C=C12` are within 1.5-fold of each other in Ki: 5 nM for the first, 4.7 nM for the second.

`C[C@]12CC[C@H]3[C@@H](C(=O)C=C4CCCC[C@@]43O)[C@@H]1CCC2=O` and `CC(=O)O[C@]12CCCCC1=CC(=O)[C@H]1[C@@H]3CCC(=O)[C@@]3(C)CC[C@@H]12` are the same in Ki: 1100 nM for the first, 1100 nM for the second.

target: T1, Aromatase; experiment: Inhibition of aromatase (unknown origin); design: inhibition (INH): concentration or dose not given beside the values; conditions: not given

`C[C@]12CC[C@H]3[C@@H](CCC4=CC(=O)CC[C@@]43[C@@H]3CN3)[C@@H]1CC[C@@H]2O` and `C[C@]12CC[C@H]3[C@@H](CCC4=CC(=O)CC[C@@]43[C@H]3CN3)[C@@H]1CC[C@@H]2O` are the same in Ki: 3.4 nM for the first, 3.4 nM for the second.

`C[C@]12CC[C@H]3[C@@H](CCC4=CC(=O)CC[C@@]43[C@H]3CN3)[C@@H]1CCC2=O` and `C[C@]12CC[C@H]3[C@@H](CCC4=CC(=O)CC[C@@]43[C@@H]3CN3)[C@@H]1CCC2=O` are the same in Ki: 3.4 nM for the first, 3.4 nM for the second.

Going from `CC1(C)C[C@@]2(C)C(=CC1=O)C(=O)C[C@@H]1[C@@H]2CC[C@]2(C)C(=O)CC[C@@H]12` to `CC1(C)C[C@@]2(C)C(=C(O)C1=O)C(=O)C[C@@H]1[C@@H]2CC[C@]2(C)C(=O)CC[C@@H]12`, the Ki rises from 25 nM to 40 nM (1.6-fold). The first binds more tightly here.

In the case of `C[C@]12CCC(=O)C(O)=C1C(=O)C[C@@H]1[C@@H]2CC[C@]2(C)C(=O)CC[C@@H]12`, the Ki is reported as 42 nM.

Compared with `COC(=O)C1=C(C)NC(C)=C(C(=O)OC)C1C[C@H]1C[C@@H]2[C@H](CC[C@]3(C)C(=O)CC[C@@H]23)[C@@]2(C)C=CC(=O)C=C12`, `CC(=O)O[C@H]1[C@@H]2[C@H](CC[C@]3(C)C(=O)CC[C@@H]23)[C@@]2(C)CCC(=O)C=C2[C@@H]1N=[N+]=[N-]` is 25-fold lower in IC50: 10000 nM for the first, 400 nM for the second.

same assay, conditions: human

`C[C@]12CC[C@H]3[C@@H](CC[C@H]4C[C@@]5(O)C[C@H]6[C@H](O5)[C@]436)[C@@H]1CCC2=O` and `C[C@]12CC[C@H]3[C@@H](CC[C@H]4CC(=O)C[C@H]5[C@@H](O)[C@]435)[C@@H]1CCC2=O` are the same in “inhibition (INH)” value: 40% for the first, 40% for the second.

First: CC(=O)[C@@]1(C)CC[C@H]2[C@@H](CCC3=C(O)C(=O)CC[C@@]32C)C1CC#N (some centres undefined)
Second: CC(=O)O[C@@H]1[C@@H]2CC(=O)C[C@@H]3CC[C@@H]4[C@H](CC[C@]5(C)C(=O)CC[C@@H]45)[C@@]312
The “inhibition (INH)” value of the first is higher: 46.5% for the first, 40% for the second.

target: T1, Aromatase; conditions: not given

`C[C@]12CC[C@@H]3c4ccc(O)cc4[C@@H](Cc4ccccc4)C[C@H]3[C@@H]1CCC2=O` and `C[C@]12CC[C@@H]3c4ccc(O)cc4[C@H](Cc4ccccc4)C[C@H]3[C@@H]1CCC2=O` are the same in Ki: 100 nM for the first, 100 nM for the second.

Going from `C[C@]12C=CC(=O)C=C1C(c1ccc(OS(N)(=O)=O)cc1)=C[C@@H]1[C@@H]2CC[C@]2(C)C(=O)CC[C@@H]12` to `C[C@]12CCC(=O)C=C1C(c1ccc(O)cc1)=C[C@@H]1[C@@H]2CC[C@]2(C)C(=O)CC[C@@H]12`, the Ki falls from 56 nM to 23 nM (2.4-fold). The second binds more tightly here.

Going from `CCCCCCCC[C@@H]1C[C@@H]2[C@H](CC[C@]3(C)C(=O)CC[C@@H]23)[C@@]2(C)CCC(=O)C=C12` to `CC1(C)C[C@@]2(C)C(=CC1=O)[C@H](Br)C[C@@H]1[C@@H]2CC[C@]2(C)C(=O)CC[C@@H]12`, the Ki rises from 2.8 nM to 10 nM (3.6-fold).

target: T1, Aromatase; conditions: not given; remark: another data set of the same source

`C[C@]12CCC(=O)C(OCc3ccccc3)=C1CC[C@@H]1[C@@H]2CC[C@]2(C)C(=O)CC[C@@H]12` and `CSC1=C2CC[C@@H]3[C@H](CC[C@]4(C)C(=O)CC[C@@H]34)[C@@]2(C)CCC1=O` are within 1.5-fold of each other in Ki: 38 nM for the first, 36 nM for the second.

`C[C@]12CCC(=O)C=C1[C@@H]1[C@H]([C@@H]3[C@@H]2CC[C@]2(C)C(=O)CC[C@@H]32)C1(F)F` and `C[C@]12CCCC=C1[C@@H]1[C@H]([C@@H]3[C@@H]2CC[C@]2(C)C(=O)CC[C@@H]32)C1(F)F` are the same in Ki: 5 nM for the first, 5 nM for the second.

Going from `C[C@]12CCCC=C1CC[C@@H]1[C@@H]2CC[C@]2(C)C(=O)[C@H](Br)C[C@@H]12` to `C[C@]12CCCC=C1CC[C@@H]1[C@@H]2CC[C@]2(C)C(=O)[C@@H](Br)C[C@@H]12`, the Ki rises from 228 nM to 455 nM (2-fold). The first binds more tightly here.

Compared with `C[C@]12CCC(=O)C=C1C[C@H](Cc1ccccc1)[C@@H]1[C@@H]2CC[C@]2(C)C(=O)CC[C@@H]12`, `C[C@]12CCC(=O)C=C1C[C@@H](Cc1ccccc1)[C@@H]1[C@@H]2CC[C@]2(C)C(=O)CC[C@@H]12` is 1.9-fold lower in Ki: 36 nM for the first, 18.9 nM for the second.

`CCSC1=C2CC[C@@H]3[C@H](CC[C@]4(C)C(=O)CC[C@@H]34)[C@@]2(C)CCC1=O` and `CCCSC1=C2CC[C@@H]3[C@H](CC[C@]4(C)C(=O)CC[C@@H]34)[C@@]2(C)CCC1=O` are the same in Ki: 36 nM for the first, 36 nM for the second.

First: C[C@]12CCC(=O)C=C1C[C@@H](CCc1ccccc1)[C@@H]1[C@@H]2CC[C@]2(C)C(=O)CC[C@@H]12
Second: C[C@]12CCC(=O)C=C1C[C@H](CCc1ccccc1)[C@@H]1[C@@H]2CC[C@]2(C)C(=O)CC[C@@H]12
The Ki of the first is 2.7-fold lower: 13.1 nM for the first, 36 nM for the second.

Going from `C[C@]12CC[C@H]3[C@@H]([C@H]4[C@@H](C5=CCCC[C@@]53C)C4(F)F)[C@@H]1CC[C@@H]2O` to `C[C@]12CC[C@H]3[C@@H](CCC4=CCCC[C@@]43CO)[C@@H]1CC[C@@H]2O`, the Ki rises from 5 nM to 170 nM (34-fold). The first binds more tightly here.

`C[C@]12C=CC(=O)C=C1C[C@@H](CCCc1ccccc1)[C@@H]1[C@@H]2CC[C@]2(C)C(=O)CC[C@@H]12` and `C[C@]12C=CC(=O)C=C1C[C@@H](CCc1ccccc1)[C@@H]1[C@@H]2CC[C@]2(C)C(=O)CC[C@@H]12` are the same in Ki: 7 nM for the first, 7 nM for the second.

Going from `CC(=O)SC1=C2CC[C@@H]3[C@H](CC[C@]4(C)C(=O)CC[C@@H]34)[C@@]2(C)CCC1=O` to `C#C[C@H](OC(C)=O)[C@]12CCC(=O)C=C1C(=O)C[C@@H]1[C@@H]2CC[C@]2(C)C(=O)CC[C@@H]12`, the Ki rises from 36 nM to 67000 nM (1900-fold).

`C[C@]12C=CC(=O)C=C1C[C@@H](CCc1ccc([N+](=O)[O-])cc1)[C@@H]1[C@@H]2CC[C@]2(C)C(=O)CC[C@@H]12` and `C[C@]12C=CC(=O)C=C1C[C@@H](CCCc1ccc([N+](=O)[O-])cc1)[C@@H]1[C@@H]2CC[C@]2(C)C(=O)CC[C@@H]12` are the same in Ki: 7 nM for the first, 7 nM for the second.

Compared with `C[C@]12CCC(=O)C=C1C=C(c1ccccc1)[C@@H]1[C@@H]2CC[C@]2(C)C(=O)CC[C@@H]12`, `C[C@]12CCC(=O)C=C1C=C(Cc1ccccc1)[C@@H]1[C@@H]2CC[C@]2(C)C(=O)CC[C@@H]12` is 23-fold lower in Ki: 1420 nM for the first, 60.9 nM for the second.

`C[C@]12C=CC(=O)C=C1C[C@@H](CCc1ccc(N)cc1)[C@@H]1[C@@H]2CC[C@]2(C)C(=O)CC[C@@H]12` and `C[C@]12C=CC(=O)C=C1C[C@@H](Cc1ccccc1)[C@@H]1[C@@H]2CC[C@]2(C)C(=O)CC[C@@H]12` are the same in Ki: 7 nM for the first, 7 nM for the second.

Compared with `C[C@]12CCC(=O)C=C1C=C(CCc1ccccc1)[C@@H]1[C@@H]2CC[C@]2(C)C(=O)CC[C@@H]12`, `C[C@]12CC[C@H]3[C@@H]([C@H](Cc4ccccc4)CC4=CC(=O)CC[C@@]43C)[C@@H]1CC[C@@H]2O` is 1.7-fold lower in Ki: 60.9 nM for the first, 36 nM for the second. The second binds more tightly here.

Going from `C#C[C@@H](OC(C)=O)[C@@]12CCC(=O)C=C1C(=O)C[C@@H]1[C@@H]2CC[C@]2(C)C(=O)CC[C@@H]12` to `C[C@]12CC[C@H]3[C@@H](CCC4=CCCC[C@@]43C(F)F)[C@@H]1CCC2=O`, the Ki falls from 75000 nM to 170 nM (440-fold). The second binds more tightly here.
